# Experimental data from ChEMBL document CHEMBL4411303, “Synthesis of tetrazole derivatives bearing pyrrolidine scaffold and evaluation of their antifungal activity against Candida albicans” (Eur J Med Chem, 2019).
# Active and inactive are the calls of the source. The rule behind the calls is not given here.
# Key:
# [1] = Toxicity in Galleria mellonella larvae assessed as survival rate at 46.05 uM measured after 18 hrs (reference value: 100%)
# [2] = Toxicity in Galleria mellonella larvae assessed as cocoon formation at 46.05 uM measured after 18 hrs (reference value: 60 +/- 20%)
# [3] = Toxicity in Galleria mellonella larvae assessed as survival rate at 46.05 uM measured after 120 hrs (reference value: 100%)
# Candida albicans [4] = test: Induction of apoptosis in Candida albicans ATCC 90028 assessed as necrotic cells by Annexin V-FITC/propidium iodide staining based flow cytometry; type: functional, organism-based
# Candida albicans [5] = test: Antifungal activity against Candida albicans ATCC 90028 assessed as planktonic growth inhibition at 1.44 uM after 48 hrs by M27-A3 protocol based method relative to control; type: functional; settings: ATCC 90028, 48 h, read-out: GI
# Candida albicans [6] = test: Antifungal activity against Candida albicans ATCC 90028 assessed as planktonic growth inhibition at 0.18 uM after 48 hrs by M27-A3 protocol based method relative to control; type: functional; settings: ATCC 90028, 48 h, read-out: GI
# Candida albicans [7] = test: Antibiofilm activity against Candida albicans ATCC 90028 assessed as inhibition of biofilm formation […] after 24 hrs by XTT assay relative to control; type: functional, organism-based; settings: ATCC 90028, 24 h
# Candida albicans [8] = test: Antifungal activity against Candida albicans ATCC 90028 assessed as planktonic growth inhibition at 0.09 uM after 48 hrs by M27-A3 protocol based method relative to control; type: functional; settings: ATCC 90028, 48 h, read-out: GI
# Candida albicans [9] = test: Inhibition of Candida albicans ATCC 90028 cell adhesion to human TR146 cells at reduction in cell adherence at 46.05 uM relative to control; type: functional; settings: ATCC 90028, TR146
# Candida albicans [10] = test: Antifungal activity against Candida albicans ATCC 90028 assessed as reduction in cell growth after 48 to 72 hrs by M27-A3 protocol based method; type: functional
# [11] = Selectivity index, ratio of CC50 for African green monkey Vero cells to IC50 for Candida albicans ATCC 90028; type: toxicity; settings: read-out: Ratio CC50/IC50
# Candida albicans [12] = test: Antifungal activity against Candida albicans ATCC 90028 assessed as planktonic growth inhibition at 46.05 uM after 48 hrs by M27-A3 protocol based method relative to control; type: functional; settings: ATCC 90028, 48 h, read-out: GI
# Candida albicans [13] = test: Fungicidal activity against Candida albicans ATCC 90028 assessed as log reduction in fungal load incubated for 48 hrs followed by replating on sabouraud dextrose agar plate and measured after 48 hrs; type: functional
# Candida albicans [14] = test: Antifungal activity against Candida albicans ATCC 90028 assessed as planktonic growth inhibition at 0.36 uM after 48 hrs by M27-A3 protocol based method relative to control; type: functional; settings: ATCC 90028, 48 h, read-out: GI
# [15] = Toxicity in Galleria mellonella larvae assessed as movement melanization at 46.05 uM measured after 48 hrs (reference value: 0%)
# Candida albicans [16] = test: Antifungal activity against Candida albicans ATCC 90028 infected in Galleria mellonella larvae assessed as induction of pathogen entrapping by haemocytes at 10 uL measured at 24 hrs interval for 144 hrs by HE staining based microscopic analysis; type: functional, organism-based
# Candida albicans [17] = test: Antifungal activity against Candida albicans ATCC 90028 assessed as planktonic growth inhibition at 11.51 uM after 48 hrs by M27-A3 protocol based method relative to control; type: functional; settings: ATCC 90028, 48 h, read-out: GI
# Candida albicans [18] = test: Antifungal activity against Candida albicans ATCC 90028 assessed as planktonic growth inhibition at 23.02 uM after 48 hrs by M27-A3 protocol based method relative to control; type: functional; settings: ATCC 90028, 48 h, read-out: GI
# Candida albicans [19] = test: Induction of Candida albicans ATCC 90028 internalization in mouse RAW264.7 cells assessed as reduction in fungus-induced cell damage by measuring live and early apoptotic cells at 46.05 uM after 2 hrs acridine orange/ethidium bromide staining based confocal scanning microscopic analysis; type: functional, organism-based
# [20] = Toxicity in Galleria mellonella larvae assessed as survival rate at 46.05 uM measured after 48 hrs (reference value: 100%)
# Candida albicans [21] = test: Antifungal activity against Candida albicans ATCC 90028 assessed as reduction in cell growth after 48 to 72 hrs in presence of ergosterol by M27-A3 protocol based method; type: functional
# Candida albicans [22] = test: Cell cycle arrest in Candida albicans ATCC 90028 assessed as accumulation at G0/G1-phase by propidium iodide staining based flow cytometry; type: functional, organism-based
# Candida albicans [23] = test: Induction of reactive oxygen species generation in Candida albicans ATCC 90028 assessed as ROS level at 46.05 uM after 18 hrs by DCFDA probe based flow cytometry (reference value: 0.3%); type: functional
# Candida albicans [24] = test: Antifungal activity against Candida albicans ATCC 90028 assessed as planktonic growth inhibition at 2.88 uM after 48 hrs by M27-A3 protocol based method relative to control; type: functional; settings: ATCC 90028, 48 h, read-out: GI
# Candida albicans [25] = test: Selectivity index, ratio of CC50 for induction of necrosis in Candida albicans ATCC 90028 to MIC for Candida albicans ATCC 90028; type: functional
# [26] = Toxicity in Galleria mellonella larvae assessed as cocoon formation at 46.05 uM measured after 48 hrs (reference value: 85 +/- 5%)
# Candida albicans [27] = test: Antifungal activity against Candida albicans ATCC 90028 assessed as planktonic growth inhibition at 5.76 uM after 48 hrs by M27-A3 protocol based method relative to control; type: functional; settings: ATCC 90028, 48 h, read-out: GI
# Candida albicans [28] = test: Antifungal activity against Candida albicans ATCC 90028 infected in Galleria mellonella larvae assessed as inhibition of fungus filamentation at 10 uL measured at 24 hrs interval for 144 hrs by HE staining based microscopic analysis; type: functional, organism-based
# Candida albicans [29] = test: Antifungal activity against Candida albicans ATCC 90028 assessed as planktonic growth inhibition at 0.72 uM after 48 hrs by M27-A3 protocol based method relative to control; type: functional; settings: ATCC 90028, 48 h, read-out: GI
# [30] = Toxicity in Galleria mellonella larvae assessed as movement melanization at 46.05 uM measured after 128 hrs (reference value: 0%)
# [31] = Toxicity in Galleria mellonella larvae assessed as cocoon formation at 46.05 uM measured after 48 hrs (reference value: 100 +/- 0%)
# [32] = Toxicity in Galleria mellonella larvae assessed as movement melanization at 46.05 uM measured after 18 hrs (reference value: 0%)
# Candida albicans [33] = test: Induction of apoptosis in Candida albicans ATCC 90028 assessed as necrotic cells at 46.05 uM by Annexin V-FITC/propidium iodide staining based flow cytometry relative to control; type: functional
compound,measurement,setting,value
Cc1cccc(C2CCCN2CCCn2nnc(-c3ccccc3)n2)c1 (stereo not drawn),"survival at 18 h, 46.05 µM",[1],100%
same,Activity,[2],87%
same,"survival at 120 h, 46.05 µM",[3],80%
same,IC50,Candida albicans [4],46.1 µM
same,inhibition of growth at 1.44 µM,Candida albicans [5],99.4%
same,inhibition of growth at 0.18 µM,Candida albicans [6],99.4%
same,IC50,Candida albicans [7],46.1 µM
same,inhibition of growth at 0.09 µM,Candida albicans [8],100%
same,inhibition at 46.05 µM,Candida albicans [9],98.2%
same,MIC,Candida albicans [10],11.5 µM
same,selectivity ratio,[11],2
same,inhibition of growth at 46.05 µM,Candida albicans [12],99.4%
same,log(activity),Candida albicans [13],-0.1
same,inhibition of growth at 0.36 µM,Candida albicans [14],99.5%
same,Activity,[15],0%
same,Activity,Candida albicans [16],Active
same,inhibition of growth at 11.51 µM,Candida albicans [17],99.5%
same,inhibition of growth at 23.02 µM,Candida albicans [18],99.4%
same,Activity,Candida albicans [19],Active
same,"survival at 48 h, 46.05 µM",[20],100%
same,MIC,Candida albicans [21],23 µM
same,Activity,Candida albicans [22],Active
same,Activity,Candida albicans [23],7%
same,inhibition of growth at 2.88 µM,Candida albicans [24],99.3%
same,Selectivity Index,Candida albicans [25],4
same,Activity,[26],73%
same,inhibition of growth at 5.76 µM,Candida albicans [27],99.4%
same,inhibition,Candida albicans [28],Active
same,inhibition of growth at 0.72 µM,Candida albicans [29],99.4%
same,Activity,[30],20%
same,Activity,[31],80%
same,Activity,[32],0%
same,Activity,Candida albicans [33],97%
